{"source": "patent US6673778B1", "about": "“Enzyme inhibitors for metabolic redirection” (The Board of Regents of the University of Nebraska, priority 1996, dated 2004)", "key": {"rat CYP3A2": {"system": "rat CYP3A2", "assay": "Midazolam sleep time in rats", "assay_type": "in vivo", "conditions": "MZ 50 mg/kg i.p.", "protocol": "Male Sprague-Dawley rats (Sasco, Omaha) weighing between 210 to 290 grams were used for all studies. The animals were exposed to 12 hour light/dark cycle and fed Purina rat chow and tap water ad libitum.\nSleep time was measured after i.p. injection of 50 mg/kg MZ (Hoffman-La Roche, Nutley, N.J.) at 0 (day 1), 24 (day 2) and […]. The volume of the injection was from 2.0 to 2.4 ml/rat. […] […] Control rats received saline only. Total volume injection was 0.1 ml in saline."}, "CYP3A2": {"system": "CYP3A2", "assay": "Erythromycin demethylation (ED) in liver microsomes", "assay_type": "in vivo, rat", "protocol": "Sleep time was measured after i.p. injection of 50 mg/kg MZ (Hoffman-La Roche, Nutley, N.J.) at 0 (day 1), 24 (day 2) and 48 h (day 4). The volume of the injection was from 2.0 to 2.4 ml/rat. […] The rats were treated with 0.25, 0.50 or 1.00 mg antisense ODN i.p. immediately after the animal had regained its righting reflex determined at 0 and 24 h. Control rats received saline only. Total volume injection was 0.1 ml in saline.\nMicrosomes were prepared, as described by Franklin and Estabrook (cited above) for determination of enzyme level and activity.\nErythromycin demethylation (ED) was used a measure of CYP3A2 enzymatic activity (Gonzalez, Pharmacol. Rev. 40:243-87, 1989). Activity was recorded as micromoles of formaldehyde per milligram of protein per minute."}}, "note": "In the oligonucleotide strings, read from the 5' end, every base follows the letter of its sugar. An asterisk marks phosphorothioate; unmarked linkages are phosphodiester. Other units and linkages are bracketed, terminal groups are in braces. A string of capitals states the bases alone. d = 2'-deoxy (DNA)", "data": [{"substance": "AUGM:YC/PMO: PMO myc control, SEQ ID NO: 44, 5′-ACGUUGAGGGGCAUCGUCC-3′ (all phosphorodiamidate morpholino (PMO), T or U not given here)", "values": [{"measurement": "MZ ST (midazolam sleep time)", "setting": "rat CYP3A2; 100 μg/day i.p.", "result": "20.6 ± 0.6", "unit": "min"}, {"measurement": "ED (erythromycin demethylase activity)", "setting": "CYP3A2; 100 μg/day i.p.", "result": 110, "unit": "μmol HCOH/mg/min"}]}, {"substance": "REV3A2/PMO: PMO reverse control, SEQ ID NO: 43, 5′-UACCUCGACGAAAGUCGAGAGU-3′ (all phosphorodiamidate morpholino (PMO), T or U not given here)", "values": [{"measurement": "MZ ST (midazolam sleep time)", "setting": "rat CYP3A2; 100 μg/day i.p.", "result": "20.3 ± 1.3", "unit": "min"}, {"measurement": "ED (erythromycin demethylase activity)", "setting": "CYP3A2; 100 μg/day i.p.", "result": 99, "unit": "μmol HCOH/mg/min"}]}, {"substance": "REV3A2/PS: PS DNA reverse control, SEQ ID NO: 43, 5′-TACCTCGACGAAAGTCGAGAGT-3′ (antisense dT*dA*dC*dC*dT*dC*dG*dA*dC*dG*dA*dA*dA*dG*dT*dC*dG*dA*dG*dA*dG*dT)", "values": [{"measurement": "MZ ST (midazolam sleep time)", "setting": "rat CYP3A2; 1000 μg/day i.p.", "result": "22.4 ± 0.6", "unit": "min"}, {"measurement": "ED (erythromycin demethylase activity)", "setting": "CYP3A2; 1000 μg/day i.p.", "result": 91, "unit": "μmol HCOH/mg/min"}]}]}
